Measurements from patent US11944605B2, “Rapamycin analogs and uses thereof” (Janssen Pharmaceutica NV, priority 2018, dated 2024).
Entries after “also recorded” stand apart in the source; their conditions may differ.

Columns and labels:
Type in all cases: cell-based
[1] = tested on: pS6K1 (p-p70 S6 Kinase (Thr389)) in MCF-7 cells; assay: AlphaLISA Ultra pS6K1 Assay; details: Homo sapiens, 1.5 h; MCF7 cells, 90 min
Summary of the method: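 MCF-7 cells were seeded for 20–24 h, refed with fresh medium for 2 h, then treated with compound for 90 min at 0.5% final DMSO. Lysates were frozen at −80 °C, thawed and assayed by AlphaLISA with acceptor then donor beads, 2 h each.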

mTORC1 over mTORC2 = assay: mTORC1 selectivity over mTORC2 at 24 hrs (Western blot based pS6K1 and pAKT assay); details: 24 hrs
Experimental: (§1) Western Blot Based pS6K1 and pAKT Assay at 24 and 48 Hour Timepoints
(§2) 1. Seed six well plate with 500,000 PC3 cells per well and incubate for 20˜24 hour.
(§3) 2. Add compounds into the cell plate. Incubate for 24 to 48 hours.
(§4) 4. Plate is placed on ice and the media is removed via aspiration. The wells are washed with 1 mL of 1× PBS and then fully aspirated.
(§5) 5. 110 μL of 1% Triton Lysis Buffer is added and each well is scraped vigorously.
(§6) 6. Cell homogenates are transferred to 1.5 mL eppendorf tubes on ice and spun down at 4° C. for 10 minutes at 10,000 rpm.
(§7) 9. The membranes were washed 3× with TBS-T with a 5 minute incubation between each wash then incubated with secondary antibody (LiCor IRDye 800 Donkey Anti Rabbit) for at least 30 minutes.
(§8) 10. The membranes were washed 3× with TBS-T with a 5 minute incubation between each wash.
(§9) 11. The gels were then incubated for 5 minutes with PBS at room temperature then imaged using a Li-Cor.
“N/A” stands for “not assayed.”

[2] = tested on: mTORC1 pathway (pS6K1 T389) in PC3 cells; assay: Western blot, mTORC1 pathway (pS6K1) in PC3 cells; details: PC3 cells, 24 hours
Experimental: as §1, §2, §3, §4, §5, §6, §7, §8, §9
(§10) The methods employed were substantially similar to those described above. Compounds were evaluated in PC3 cells, Jurkat cells, wild-type mouse embryotic fibroblast (MEF) cells, tuberous sclerosis 2 (TSC2) negative (TSC −/−) MEF cells, and tuberous sclerosis 2 (TSC2) positive (TSC +/+) MEF cells. Cells were incubated with compounds of the present invention for various time periods (e.g., 5 minutes, 15 minutes, 30 minutes, 90 minutes, 24 hours, or 48 hours), and evaluated according to known methodologies, such as those herein described.

[3] = tested on: mTORC2 pathway (Akt phosphorylation) in PC3 cells; assay: Western blot, mTORC2 pathway (pAkt) in PC3 cells; details: 24 hours
Experimental: as §1, §2, §3, §4, §5, §6, §7, §8, §9, §10

Row | SMILES | IC50 [1] [nM] | mTORC1 selective @ 24 hrs (mTORC1 over mTORC2) | inhibition of the mTORC1 pathway [2] | inhibition of mTORC2 (Akt phosphorylation) [3]
1 | CO[C@@H]1C[C@H](C[C@@H](C)[C@@H]2CC(=O)[C@H](C)/C=C(\C)[C@@H](O)[C@@H](OC)C(=O)[C@H](C)C[C@H](C)/C=C/C=C/C=C(\C)C(OCC(COCCC#N)(COCCC#N)COCCC#N)C[C@@H]3CC[C@@H](C)[C@@](O)(O3)C(=O)C(=O)N3CCCC[C@H]3C(=O)O2)CC[C@H]1O (stereo partly drawn) [I-101, 3-[2,2-bis(2-cyanoethoxymethyl)-3-[[(21E, 23E,25E,26E,41R,42S,43R,44R,46S,48S,51S,52R,53R,62R)-52,62-dihydroxy-51-[(1R)-2-[(1S, 3R,4R)-4-hydroxy-3-methoxy-cyclohexyl]-1-methyl-ethyl]-53-methoxy-41, 42,43,44,54,55-hexamethyl-56,57,58,59,60-pentaoxo-76,77-dioxa-67-azatricyclohexatriaconta-21, 23,25(54),26(55)-tetraen-50-yl]oxy]propoxy]propanenitrile] | 0.1 to 1 | YES | strong inhibition; also recorded: appreciable concentration dependent inhibition; also recorded: moderate concentration dependent inhibition | do not inhibit
2 | CO[C@@H]1C[C@H](C[C@@H](C)[C@@H]2CC(=O)[C@H](C)/C=C(\C)[C@@H](O)[C@@H](OC)C(=O)[C@H](C)C[C@H](C)/C=C/C=C/C=C(\C)[C@H](OCCOCCOCCOCCO)C[C@@H]3CC[C@@H](C)[C@@](O)(O3)C(=O)C(=O)N3CCCC[C@H]3C(=O)O2)CC[C@H]1OCCO [I-114, (21E,23E,25E,26E,38R,39S,40R,41R,43S,45S,47R,48S,49R,50R,59R)-49, 59-dihydroxy-47-[2-[2-[2-(2-hydroxyethoxy)ethoxy]ethoxy]ethoxy]-48-[(1R)-2-[(1S,3R, 4R)-4-(2-hydroxyethoxy)-3-methoxy-cyclohexyl]-1-methyl-ethyl]-50-methoxy-38,39,40,41,51, 52-hexamethyl-70,71-dioxa-60-azatricyclohexatriaconta-21,23,25(51),26(52)-tetraene-53, 54,55,56,57-pentone] | 1 to 10 | YES |  | 
3 | CO[C@@H]1C[C@H](C[C@@H](C)[C@@H]2CC(=O)[C@H](C)/C=C(\C)[C@@H](O)[C@@H](OC)C(=O)[C@H](C)C[C@H](C)/C=C/C=C/C=C(\C)C(OCCOCCOCCOCCOCCOCCOCCO)C[C@@H]3CC[C@@H](C)[C@@](O)(O3)C(=O)C(=O)N3CCCC[C@H]3C(=O)O2)CC[C@H]1OCCO (stereo partly drawn) [I-99, (21E,23E,25E,26E,44R,45S,46R,47R,49S,51S,54S,55R,56R,65R)-55, 65-dihydroxy-53-[2-[2-[2-[2-[2-[2-(2-hydroxyethoxy)ethoxy]ethoxy]ethoxy]ethoxy]ethoxy]ethoxy]-54-[(1R)-2-[(1S, 3R,4R)-4-(2-hydroxyethoxy)-3-methoxy-cyclohexyl]-1-methyl-ethyl]-56-methoxy-44, 45,46,47,57,58-hexamethyl-76,77-dioxa-66-azatricyclohexatriaconta-21, 23,25(57),26(58)-tetraene-59,60,61,62,63-pentone] | 0.1 to 1 | YES | appreciable concentration dependent inhibition; also recorded: moderate concentration dependent inhibition | do not inhibit
4 | CO[C@H]1C[C@@H]2CC[C@@H](C)[C@@](O)(O2)C(=O)C(=O)N2CCCC[C@H]2C(=O)O[C@H]([C@H](C)C[C@@H]2CC[C@@H](OC(=O)C(C)(CO)CO)[C@H](OC)C2)CC(=O)[C@H](C)/C=C(\C)[C@@H](O)[C@@H](OC)C(=O)[C@H](C)C[C@H](C)/C=C/C=C/C=C/1C [temsirolimus, reference compound] |  |  | strong inhibition | dose dependent inhibition
5 | CO[C@@H]1C[C@H](C[C@@H](C)[C@@H]2CC(=O)[C@H](C)/C=C(\C)[C@@H](O)[C@@H](OC)C(=O)[C@H](C)C[C@H](C)/C=C/C=C/C=C(\C)[C@H](OCC(CO)CO)C[C@@H]3CC[C@@H](C)[C@@](O)(O3)C(=O)C(=O)N3CCCC[C@H]3C(=O)O2)CC[C@H]1O [I-4] | 0.1 to 1 | YES |  | 
6 | CO[C@@H]1CC(C[C@@H](C)C2CC(=O)[C@H](C)/C=C(\C)[C@@H](O)[C@@H](OC)C(=O)[C@H](C)C[C@H](C)/C=C/C=C/C=C(\C)[C@@H](OCCOCC(F)(F)F)C[C@@H]3CC[C@@H](C)[C@@](O)(O3)C(=O)C(=O)N3CCCC[C@H]3C(=O)O2)CC[C@H]1OCCO (stereo partly drawn) [I-71, (21E,23E,25E,26E,33R,34S,35R,36R,38S,40S,42S,43S,44R,45R,54R)-44, 54-dihydroxy-43-[(1R)-2-[(1S,3R,4R)-4-(2-hydroxyethoxy)-3-methoxy-cyclohexyl]-1-methyl-ethyl]-45-methoxy-33, 34,35,36,46,47-hexamethyl-42-[2-(2,2,2-trifluoroethoxy)ethoxy]-65,66-dioxa-56-azatricyclohexatriaconta-21,23,25(46),26(47)-tetraene-48, 49,50,51,52-pentone] | 0.1 to 1 | YES | strong inhibition | do not inhibit
7 | CO[C@@H]1C[C@H](C[C@@H](C)[C@@H]2CC(=O)[C@H](C)/C=C(\C)[C@@H](O)[C@@H](OC)C(=O)[C@H](C)C[C@H](C)/C=C/C=C/C=C(\C)C(OCCOCCOCCOCCOCCOCCOCCOCCOCCOCCOCCO)C[C@@H]3CC[C@@H](C)[C@@](O)(O3)C(=O)C(=O)N3CCCC[C@H]3C(=O)O2)CC[C@H]1O (stereo partly drawn) [I-96, (21E,23E,25E,26E,50R,51S,52R,53R,55S,57S,60S,61R,62R,71R)-61, 71-dihydroxy-59-[2-[2-[2-[2-[2-[2-[2-[2-[2-[2-(2-hydroxyethoxy)ethoxy]ethoxy]ethoxy]ethoxy]ethoxy]ethoxy]ethoxy]ethoxy]ethoxy]ethoxy]-60-[(1R)-2-[(1S,3R,4R)-4-hydroxy-3-methoxy-cyclohexyl]-1-methyl-ethyl]-62-methoxy-50, 51,52,53,63,64-hexamethyl-82,83-dioxa-72-azatricyclohexatriaconta-21, 23,25(63),26(64)-tetraene-65,66,67,68,69-pentone] | 0.1 to 1 | YES | strong inhibition | do not inhibit
8 | CO[C@@H]1C[C@H](C[C@@H](C)[C@@H]2CC(=O)[C@H](C)/C=C(\C)[C@@H](O)[C@@H](OC)C(=O)[C@H](C)C[C@H](C)/C=C/C=C/C=C(\C)[C@@H](OCCCC(=O)N(C)C)C[C@@H]3CC[C@@H](C)[C@@](O)(O3)C(=O)C(=O)N3CCCC[C@H]3C(=O)O2)CC[C@H]1OCCO [I-62, 4-[[(23E, 25E,27E,28E,35R,36S,37R,38R,40S,42S,44S,45S,46R,47R,57R)-46,57-dihydroxy-45-[(1R)-2-[(1S, 3R,4R)-4-(2-hydroxyethoxy)-3-methoxy-cyclohexyl]-1-methyl-ethyl]-47-methoxy-35, 36,37,38,48,49-hexamethyl-50,51,52,53,54-pentaoxo-69,70-dioxa-58-azatricyclohexatriaconta-23, 25,27(48),28(49)-tetraen-44-yl]oxy]-N,N-dimethyl-butanamide] | 1 to 10 | YES | strong inhibition | do not inhibit
9 | CO[C@@H]1C[C@H](C[C@@H](C)[C@@H]2CC(=O)[C@H](C)/C=C(\C)[C@@H](O)[C@@H](OC)C(=O)[C@H](C)C[C@H](C)/C=C/C=C/C=C(\C)[C@@H](OCC(CO)CO)C[C@@H]3CC[C@@H](C)[C@@](O)(O3)C(=O)C(=O)N3CCCC[C@H]3C(=O)O2)CC[C@H]1O [I-5] |  | YES | strong inhibition | do not inhibit
10 | CO[C@H]1C[C@@H]2CC[C@@H](C)[C@@](O)(O2)C(=O)C(=O)N2CCCC[C@H]2C(=O)O[C@H]([C@H](C)C[C@@H]2CC[C@@H](OP(C)(C)=O)[C@H](OC)C2)CC(=O)[C@H](C)/C=C(\C)[C@@H](O)[C@@H](OC)C(=O)[C@H](C)C[C@H](C)/C=C/C=C/C=C/1C [ridaforolimus, reference compound] |  |  | strong inhibition | dose dependent inhibition
